{"source": "paper PMC6199744", "about": "“Development of Chemical Proteomics for the Folateome and Analysis of the Kinetoplastid Folateome” (ACS Infectious Diseases, 2018)", "assay_type_in_all_cases": "binding", "key": {"[1]": {"molecular_target": "T1, HeLa cell extract proteins (Homo sapiens, UniProt Q96RQ3)", "T1 construct": "endogenous in cells; host or cells: HeLa cell extract", "T1 sequence (Q96RQ3 42-725)": "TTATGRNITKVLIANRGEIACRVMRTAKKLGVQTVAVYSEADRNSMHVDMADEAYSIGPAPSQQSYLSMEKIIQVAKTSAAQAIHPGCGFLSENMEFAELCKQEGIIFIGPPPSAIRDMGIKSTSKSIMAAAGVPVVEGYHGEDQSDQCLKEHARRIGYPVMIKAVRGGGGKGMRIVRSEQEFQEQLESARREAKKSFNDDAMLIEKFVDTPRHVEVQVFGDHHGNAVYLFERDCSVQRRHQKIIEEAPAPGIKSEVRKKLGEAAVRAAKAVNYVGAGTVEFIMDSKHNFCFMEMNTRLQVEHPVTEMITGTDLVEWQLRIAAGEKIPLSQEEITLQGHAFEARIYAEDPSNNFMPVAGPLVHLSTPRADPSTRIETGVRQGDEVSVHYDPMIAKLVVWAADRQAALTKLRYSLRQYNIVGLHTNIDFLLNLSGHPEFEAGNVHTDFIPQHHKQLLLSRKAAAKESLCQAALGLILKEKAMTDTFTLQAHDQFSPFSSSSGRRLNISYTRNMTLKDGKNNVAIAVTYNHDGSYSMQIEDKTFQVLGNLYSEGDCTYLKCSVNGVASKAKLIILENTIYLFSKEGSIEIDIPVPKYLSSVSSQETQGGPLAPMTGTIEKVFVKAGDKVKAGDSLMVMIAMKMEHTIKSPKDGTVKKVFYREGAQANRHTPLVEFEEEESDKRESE", "settings": "captured protein MCCC1; HeLa"}, "[2]": {"molecular_target": "T2, HeLa cell extract proteins (Homo sapiens, UniProt O75323)", "T2 construct": "endogenous in cells; host or cells: HeLa cell extract", "T2 sequence (O75323 24-286)": "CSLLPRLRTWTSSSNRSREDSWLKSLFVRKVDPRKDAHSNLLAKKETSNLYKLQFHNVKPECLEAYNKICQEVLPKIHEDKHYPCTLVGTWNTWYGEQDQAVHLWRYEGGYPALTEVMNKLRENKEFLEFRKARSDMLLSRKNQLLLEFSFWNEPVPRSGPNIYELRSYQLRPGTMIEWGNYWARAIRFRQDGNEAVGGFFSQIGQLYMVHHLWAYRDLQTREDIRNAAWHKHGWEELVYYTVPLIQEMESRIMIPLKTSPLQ", "settings": "protein GBAS; HeLa"}, "[3]": {"molecular_target": "T3, HeLa cell extract proteins (Homo sapiens, UniProt P48556)", "T3 construct": "endogenous in cells; host or cells: HeLa cell extract", "T3 sequence (P48556 1-350)": "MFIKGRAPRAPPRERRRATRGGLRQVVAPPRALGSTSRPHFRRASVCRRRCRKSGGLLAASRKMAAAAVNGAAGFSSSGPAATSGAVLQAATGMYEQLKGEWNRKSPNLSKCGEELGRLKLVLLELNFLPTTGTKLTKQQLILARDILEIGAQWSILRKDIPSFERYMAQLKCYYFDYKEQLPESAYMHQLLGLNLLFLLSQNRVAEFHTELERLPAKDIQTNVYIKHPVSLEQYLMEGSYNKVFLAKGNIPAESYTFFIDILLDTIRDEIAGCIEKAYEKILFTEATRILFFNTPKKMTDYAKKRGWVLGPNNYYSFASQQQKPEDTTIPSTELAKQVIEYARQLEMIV", "settings": "captured protein PSMD8; HeLa"}, "[4]": {"molecular_target": "T4, HeLa cell extract proteins (Homo sapiens, UniProt Q9NQC3)", "T4 construct": "endogenous in cells; host or cells: HeLa cell extract", "T4 sequence (Q9NQC3 1-1192)": "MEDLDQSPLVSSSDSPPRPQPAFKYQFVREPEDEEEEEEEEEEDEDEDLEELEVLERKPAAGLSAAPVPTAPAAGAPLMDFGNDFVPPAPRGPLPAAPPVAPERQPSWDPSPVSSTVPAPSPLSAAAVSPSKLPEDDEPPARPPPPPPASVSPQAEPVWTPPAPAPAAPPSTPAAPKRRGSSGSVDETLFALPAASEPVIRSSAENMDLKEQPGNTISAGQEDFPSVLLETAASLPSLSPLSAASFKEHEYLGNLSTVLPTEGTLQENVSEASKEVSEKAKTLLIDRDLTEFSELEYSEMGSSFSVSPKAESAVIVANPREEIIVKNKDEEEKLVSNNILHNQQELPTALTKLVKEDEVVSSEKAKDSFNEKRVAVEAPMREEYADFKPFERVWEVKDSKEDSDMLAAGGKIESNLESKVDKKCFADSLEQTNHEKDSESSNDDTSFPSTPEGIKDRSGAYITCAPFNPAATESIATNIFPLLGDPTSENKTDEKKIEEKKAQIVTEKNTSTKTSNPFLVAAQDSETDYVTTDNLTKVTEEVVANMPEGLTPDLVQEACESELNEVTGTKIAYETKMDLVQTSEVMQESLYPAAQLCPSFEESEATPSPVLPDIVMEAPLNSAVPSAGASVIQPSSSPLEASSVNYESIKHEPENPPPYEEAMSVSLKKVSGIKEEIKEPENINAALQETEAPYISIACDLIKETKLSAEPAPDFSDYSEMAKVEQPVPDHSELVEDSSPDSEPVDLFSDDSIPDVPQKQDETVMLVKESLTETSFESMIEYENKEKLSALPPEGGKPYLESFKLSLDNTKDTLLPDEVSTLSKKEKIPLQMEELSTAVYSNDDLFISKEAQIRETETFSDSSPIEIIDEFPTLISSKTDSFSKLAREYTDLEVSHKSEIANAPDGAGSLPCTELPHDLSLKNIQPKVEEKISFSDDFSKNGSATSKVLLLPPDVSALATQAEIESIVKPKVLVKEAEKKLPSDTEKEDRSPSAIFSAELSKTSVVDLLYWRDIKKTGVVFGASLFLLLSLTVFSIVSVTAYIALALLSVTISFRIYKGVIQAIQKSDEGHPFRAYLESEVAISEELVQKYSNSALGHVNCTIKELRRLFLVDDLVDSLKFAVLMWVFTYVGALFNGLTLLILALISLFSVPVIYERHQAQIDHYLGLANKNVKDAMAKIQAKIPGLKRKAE", "settings": "HeLa; protein RTN4"}, "[5]": {"molecular_target": "T5, HeLa cell extract proteins (Homo sapiens, UniProt Q9Y6G9)", "T5 construct": "endogenous in cells; host or cells: HeLa cell extract", "T5 sequence (Q9Y6G9 whole entry)": "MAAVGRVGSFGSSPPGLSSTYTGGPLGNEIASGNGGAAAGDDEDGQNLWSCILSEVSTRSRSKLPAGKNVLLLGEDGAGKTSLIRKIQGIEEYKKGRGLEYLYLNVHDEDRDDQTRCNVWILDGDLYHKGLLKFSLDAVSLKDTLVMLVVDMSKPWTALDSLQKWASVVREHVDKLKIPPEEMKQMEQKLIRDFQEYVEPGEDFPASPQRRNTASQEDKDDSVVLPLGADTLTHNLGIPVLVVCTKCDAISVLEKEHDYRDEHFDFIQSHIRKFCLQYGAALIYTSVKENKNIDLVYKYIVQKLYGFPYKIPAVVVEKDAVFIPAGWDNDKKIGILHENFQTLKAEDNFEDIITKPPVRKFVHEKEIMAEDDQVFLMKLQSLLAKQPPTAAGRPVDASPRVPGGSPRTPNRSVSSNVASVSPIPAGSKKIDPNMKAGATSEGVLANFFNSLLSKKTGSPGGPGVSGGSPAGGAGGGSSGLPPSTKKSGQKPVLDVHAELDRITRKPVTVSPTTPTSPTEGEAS"}, "[6]": {"molecular_target": "T6, HeLa cell extract proteins (Homo sapiens, UniProt O43819)", "T6 construct": "endogenous in cells; host or cells: HeLa cell extract", "T6 sequence (O43819 42-266)": "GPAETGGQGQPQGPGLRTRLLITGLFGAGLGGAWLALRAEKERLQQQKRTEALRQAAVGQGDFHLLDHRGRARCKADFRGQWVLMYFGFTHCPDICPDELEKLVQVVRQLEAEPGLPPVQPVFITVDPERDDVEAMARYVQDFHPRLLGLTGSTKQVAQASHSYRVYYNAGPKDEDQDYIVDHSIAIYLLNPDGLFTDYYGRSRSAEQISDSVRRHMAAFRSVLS"}, "[7]": {"molecular_target": "T7, HeLa cell extract proteins (Homo sapiens, UniProt Q7Z6Z7)", "T7 construct": "endogenous in cells; host or cells: HeLa cell extract", "T7 sequence (Q7Z6Z7 whole entry)": "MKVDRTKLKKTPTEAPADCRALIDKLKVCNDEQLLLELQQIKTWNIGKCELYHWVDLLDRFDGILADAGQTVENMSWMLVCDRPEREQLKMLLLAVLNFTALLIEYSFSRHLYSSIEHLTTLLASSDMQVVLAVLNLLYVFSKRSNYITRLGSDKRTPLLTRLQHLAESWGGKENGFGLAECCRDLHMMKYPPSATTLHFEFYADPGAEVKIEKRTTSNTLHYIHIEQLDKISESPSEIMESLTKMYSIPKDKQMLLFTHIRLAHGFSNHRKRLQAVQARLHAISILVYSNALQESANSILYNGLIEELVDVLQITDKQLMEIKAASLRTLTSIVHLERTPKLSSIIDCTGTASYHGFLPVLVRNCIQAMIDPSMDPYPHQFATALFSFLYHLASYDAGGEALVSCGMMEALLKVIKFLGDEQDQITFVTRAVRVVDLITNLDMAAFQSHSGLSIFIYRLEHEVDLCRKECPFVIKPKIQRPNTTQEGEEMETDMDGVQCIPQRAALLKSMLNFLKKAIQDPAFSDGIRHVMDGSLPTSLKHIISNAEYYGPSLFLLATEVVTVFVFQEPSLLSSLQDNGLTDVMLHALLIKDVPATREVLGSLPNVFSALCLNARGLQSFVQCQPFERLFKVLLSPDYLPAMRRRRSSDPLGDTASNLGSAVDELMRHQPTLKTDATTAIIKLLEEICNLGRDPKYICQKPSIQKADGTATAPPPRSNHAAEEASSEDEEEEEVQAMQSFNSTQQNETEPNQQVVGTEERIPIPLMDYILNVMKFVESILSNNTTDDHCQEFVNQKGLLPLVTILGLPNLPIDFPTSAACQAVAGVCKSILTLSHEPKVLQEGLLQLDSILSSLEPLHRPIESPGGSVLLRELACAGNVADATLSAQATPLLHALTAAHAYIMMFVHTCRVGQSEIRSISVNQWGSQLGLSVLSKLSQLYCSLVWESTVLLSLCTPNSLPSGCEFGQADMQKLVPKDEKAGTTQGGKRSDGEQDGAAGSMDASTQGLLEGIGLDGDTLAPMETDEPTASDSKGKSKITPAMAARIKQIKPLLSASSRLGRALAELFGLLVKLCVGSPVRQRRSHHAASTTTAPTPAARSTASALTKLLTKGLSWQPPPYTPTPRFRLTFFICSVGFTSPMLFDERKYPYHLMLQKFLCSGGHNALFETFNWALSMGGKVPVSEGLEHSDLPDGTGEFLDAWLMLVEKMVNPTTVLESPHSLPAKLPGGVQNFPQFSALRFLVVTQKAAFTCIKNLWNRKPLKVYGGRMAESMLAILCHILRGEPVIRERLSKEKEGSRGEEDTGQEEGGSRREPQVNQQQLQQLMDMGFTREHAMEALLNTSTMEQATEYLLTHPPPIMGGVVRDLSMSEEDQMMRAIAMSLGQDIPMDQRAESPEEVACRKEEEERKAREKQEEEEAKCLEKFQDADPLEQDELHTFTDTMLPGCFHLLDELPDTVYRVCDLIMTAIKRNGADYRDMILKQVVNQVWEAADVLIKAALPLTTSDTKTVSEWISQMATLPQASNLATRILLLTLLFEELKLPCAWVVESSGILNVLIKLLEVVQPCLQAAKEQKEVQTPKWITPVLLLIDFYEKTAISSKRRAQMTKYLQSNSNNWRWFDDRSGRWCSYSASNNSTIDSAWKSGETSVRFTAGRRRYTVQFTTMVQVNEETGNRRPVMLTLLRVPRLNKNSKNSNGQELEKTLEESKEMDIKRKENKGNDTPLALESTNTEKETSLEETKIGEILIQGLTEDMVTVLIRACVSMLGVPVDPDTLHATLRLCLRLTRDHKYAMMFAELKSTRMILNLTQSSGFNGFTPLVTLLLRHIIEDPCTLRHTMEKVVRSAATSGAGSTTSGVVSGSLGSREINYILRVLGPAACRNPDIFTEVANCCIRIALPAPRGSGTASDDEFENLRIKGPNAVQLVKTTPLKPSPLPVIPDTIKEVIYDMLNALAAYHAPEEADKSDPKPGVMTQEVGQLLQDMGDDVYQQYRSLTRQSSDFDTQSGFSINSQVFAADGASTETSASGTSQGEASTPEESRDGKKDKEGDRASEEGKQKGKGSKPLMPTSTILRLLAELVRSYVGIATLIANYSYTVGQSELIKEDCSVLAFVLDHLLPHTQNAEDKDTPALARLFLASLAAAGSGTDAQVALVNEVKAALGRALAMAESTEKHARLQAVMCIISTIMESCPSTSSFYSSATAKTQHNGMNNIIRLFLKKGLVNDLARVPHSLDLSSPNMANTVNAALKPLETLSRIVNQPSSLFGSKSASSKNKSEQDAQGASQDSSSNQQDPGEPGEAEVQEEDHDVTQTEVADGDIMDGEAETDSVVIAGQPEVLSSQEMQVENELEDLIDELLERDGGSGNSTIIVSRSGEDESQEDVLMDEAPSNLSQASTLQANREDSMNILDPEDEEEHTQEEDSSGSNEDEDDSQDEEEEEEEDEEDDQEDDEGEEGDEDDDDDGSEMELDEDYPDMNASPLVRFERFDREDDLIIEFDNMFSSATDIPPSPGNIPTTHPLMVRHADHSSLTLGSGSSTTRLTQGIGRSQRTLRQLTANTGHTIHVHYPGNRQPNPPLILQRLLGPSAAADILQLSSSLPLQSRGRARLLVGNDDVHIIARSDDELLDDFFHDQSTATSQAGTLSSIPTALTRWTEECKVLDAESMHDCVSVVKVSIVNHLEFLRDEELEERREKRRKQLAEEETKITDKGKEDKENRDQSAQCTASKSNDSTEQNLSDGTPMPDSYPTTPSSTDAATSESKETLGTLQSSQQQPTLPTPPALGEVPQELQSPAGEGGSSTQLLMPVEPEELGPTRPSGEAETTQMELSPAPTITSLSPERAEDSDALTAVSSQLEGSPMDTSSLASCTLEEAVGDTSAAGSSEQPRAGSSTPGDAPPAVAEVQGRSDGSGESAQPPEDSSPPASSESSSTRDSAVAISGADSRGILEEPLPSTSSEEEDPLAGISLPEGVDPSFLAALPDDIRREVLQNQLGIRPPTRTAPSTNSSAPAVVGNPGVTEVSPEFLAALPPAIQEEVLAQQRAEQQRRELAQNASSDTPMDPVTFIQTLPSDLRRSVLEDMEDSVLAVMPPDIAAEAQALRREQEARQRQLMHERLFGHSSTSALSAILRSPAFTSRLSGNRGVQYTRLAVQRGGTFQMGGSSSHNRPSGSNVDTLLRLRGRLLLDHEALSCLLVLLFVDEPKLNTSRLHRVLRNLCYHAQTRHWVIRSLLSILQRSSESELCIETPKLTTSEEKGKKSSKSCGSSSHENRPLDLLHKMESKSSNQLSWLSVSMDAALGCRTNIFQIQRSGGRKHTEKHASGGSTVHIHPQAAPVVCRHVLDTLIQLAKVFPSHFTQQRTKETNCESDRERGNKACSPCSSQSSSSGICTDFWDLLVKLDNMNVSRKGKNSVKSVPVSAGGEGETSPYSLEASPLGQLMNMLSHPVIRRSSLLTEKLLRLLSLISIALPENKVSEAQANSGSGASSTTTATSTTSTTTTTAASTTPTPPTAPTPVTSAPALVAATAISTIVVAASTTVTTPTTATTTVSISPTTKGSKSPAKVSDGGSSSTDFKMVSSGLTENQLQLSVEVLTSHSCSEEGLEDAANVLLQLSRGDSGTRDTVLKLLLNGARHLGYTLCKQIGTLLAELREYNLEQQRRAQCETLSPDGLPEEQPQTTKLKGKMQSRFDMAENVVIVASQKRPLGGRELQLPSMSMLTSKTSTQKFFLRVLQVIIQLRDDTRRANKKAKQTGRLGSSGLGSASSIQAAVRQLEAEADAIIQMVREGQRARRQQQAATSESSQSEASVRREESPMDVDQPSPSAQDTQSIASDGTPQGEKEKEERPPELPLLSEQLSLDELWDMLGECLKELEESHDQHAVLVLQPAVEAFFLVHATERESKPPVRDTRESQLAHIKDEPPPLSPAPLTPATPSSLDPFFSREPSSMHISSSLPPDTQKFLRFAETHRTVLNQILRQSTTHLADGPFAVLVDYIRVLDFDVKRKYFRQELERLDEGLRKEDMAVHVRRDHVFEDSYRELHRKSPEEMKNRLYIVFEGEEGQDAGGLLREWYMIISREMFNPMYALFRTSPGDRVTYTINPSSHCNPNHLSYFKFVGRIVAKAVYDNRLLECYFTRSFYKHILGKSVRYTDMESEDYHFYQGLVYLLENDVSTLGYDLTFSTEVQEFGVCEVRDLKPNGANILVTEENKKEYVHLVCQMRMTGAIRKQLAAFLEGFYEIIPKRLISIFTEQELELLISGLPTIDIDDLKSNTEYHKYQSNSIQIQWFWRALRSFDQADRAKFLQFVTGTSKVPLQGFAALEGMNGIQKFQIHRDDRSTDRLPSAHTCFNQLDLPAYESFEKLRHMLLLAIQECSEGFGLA"}}, "note": "Read-outs that look alike come from different tables or passages of the source.", "data": [{"smiles": "Nc1nc2cccc(-c3ccccc3)c2n1Cc1ccc(Cl)c(Cl)c1", "note": "[compound 3]", "values": [{"measurement": "fold changes relative to vehicle control", "setting": "[1]", "value": 1.21}, {"measurement": "fold changes relative to vehicle control", "setting": "[2]", "value": 1.01}, {"measurement": "fold changes relative to vehicle control", "setting": "[3]", "value": 0.78}, {"measurement": "fold changes relative to vehicle control", "setting": "[4]", "value": 1}]}, {"smiles": "CCCCCCOc1ccc(Cc2cnc(N)nc2N)cc1", "note": "[compound 1]", "values": [{"measurement": "fold changes relative to vehicle control", "setting": "[1]", "value": 1.03}, {"measurement": "fold changes relative to vehicle control", "setting": "[2]", "value": 1.26}, {"measurement": "fold changes relative to vehicle control", "setting": "[3]", "value": 0.89}, {"measurement": "fold changes relative to vehicle control", "setting": "[4]", "value": 0.39}]}, {"smiles": "NCCCNc1ccc(C(=O)NC(CCC(=O)O)C(=O)O)cc1", "note": "(stereo not drawn) [compound 7]", "values": [{"measurement": "fold changes relative to vehicle control", "setting": "[5]; HeLa, protein DYNC1LI1", "value": 0.88}, {"measurement": "fold changes relative to vehicle control", "setting": "[6]; HeLa, protein SCO2", "value": 1.03}, {"measurement": "fold changes relative to vehicle control", "setting": "[7]; HeLa, protein HUWE1", "value": 0.96}]}, {"smiles": "CCCCCCOc1cccc(Cc2cnc(N)nc2N)c1", "note": "[compound 2]", "values": [{"measurement": "fold changes relative to vehicle control", "setting": "[1]", "value": 1.15}, {"measurement": "fold changes relative to vehicle control", "setting": "[2]", "value": 1.29}, {"measurement": "fold changes relative to vehicle control", "setting": "[3]", "value": 1.08}, {"measurement": "fold changes relative to vehicle control", "setting": "[4]", "value": 1.21}]}, {"smiles": "NCCOCCOCC(=O)Nc1nc2ncc(CNc3ccc(C(=O)NC(CCC(=O)O)C(=O)O)cc3)nc2c(=O)[nH]1", "note": "(stereo not drawn) [compound 6]", "values": [{"measurement": "fold changes relative to vehicle control", "setting": "[5]; HeLa, protein DYNC1LI1", "value": 0.9}, {"measurement": "fold changes relative to vehicle control", "setting": "[6]; HeLa, protein SCO2", "value": 1.02}, {"measurement": "fold changes relative to vehicle control", "setting": "[7]; HeLa, protein HUWE1", "value": 1.23}]}, {"smiles": "Nc1nc2[nH]cc(CCc3ccc(C(=O)N[C@@H](CCC(=O)O)C(=O)O)cc3)c2c(=O)[nH]1", "note": "[PTX, pemetrexed]", "values": [{"measurement": "fold changes relative to vehicle control", "setting": "[5]", "value": 0.81}, {"measurement": "fold changes relative to vehicle control", "setting": "[6]", "value": 0.95}, {"measurement": "fold changes relative to vehicle control", "setting": "[7]", "value": 1.02}]}, {"smiles": "Nc1nc2c(c(=O)[nH]1)N(C=O)C(CNc1ccc(C(=O)N[C@@H](CCC(=O)O)C(=O)O)cc1)CN2", "note": "(stereo partly drawn) [LEU, leucovorin]", "values": [{"measurement": "fold changes relative to vehicle control", "setting": "[5]; HeLa, protein DYNC1LI1", "value": 0.9}, {"measurement": "fold changes relative to vehicle control", "setting": "[6]; HeLa, protein SCO2", "value": 0.95}, {"measurement": "fold changes relative to vehicle control", "setting": "[7]; HeLa, protein HUWE1", "value": 0.98}]}]}
